# Key:
# [1] = tested on: ethidium bromide bound DNA (CT-DNA); assay: Ethidium bromide-DNA fluorescence quenching (emission titration); format: binding, calf thymus; details: for Scatchard analysis KSA / Scatchard analysis n / LWB method KLB: DNA; for Kass (DNA), SV method II / KSV (DNA), SV method I: EB-DNA; for KSV (DNA), SV method I: 610 nm; for Kapp: KEB = 10^7 M^−1 at 50 μM EB; for Kq (DNA), SV method I: Kq=KSV/τ0, τ0 = 10^−8 S; for LWB method KLB: Lineweaver–Burk; for P (DNA), ratio of fluorescence quantum efficiency: intercept of F/F0 vs 1/[DNA]; for n (DNA), SV method II: number of binding sites; for ∆Gb° (DNA), SV method II: –RT lnKass, 298 K
# Experimental: The experiment was performed in the 200 to 800 nm region. This is supporting evidence for the complexes' manner of deoxyribonucleic acid binding. When DNA (200 μM) was present or absent, we carefully monitored the intensity variations between 610 nm and 510 nm during the initial emission and excitation of EB [6, 28, 37]. Similarly, emission titrations for BSA interaction with different concentrations between 2.5 μM and 25 μM for all substances were conducted in a Tris-HCl buffer solution (pH: 7.4) between the regions of 300 nm and 400 nm.
# Emission titration is a more sensitive approach to examining the binding tendency between chemical substances and biomolecules. The emission measurements are extensively supported to scrutinize the interacting modes between compounds and deoxyribonucleic acid. In the presence of deoxyribonucleic acid (240 μM) in a Tris-HCl buffer solution (pH: 7.2) at room temperature, none of the test compounds emitted fluorescence. The titrations were also executed with the EB molecule, which is also a comparatively low fluorescence emission in Tris-HCl buffer solution (pH: 7.2) in the free state. […] In the investigation, the addition of sample concentrations (0–240 μM) to the solution of DNA-EB results in a notable reduction in the emission intensity at 610 nm (Figure 5 and Table 4). As a result of intense intercalation, the complexes displace the EB in the DNA-EB adduct, causing the emission intensity to drop. The photoelectron shift from the DNA's guanine base to the excited states may be the cause of the frequency of quenching in the emission of chemicals by DNA. Therefore, EB can be utilized as a fluorescent probing agent in the competitive binding experiment.
# K SV is denoted as Stern–Volmer binding constant; Kass is represented as association binding constant; Kapp is represented as apparent binding constant, Kapp=KEB[EB]/[compound]=500/[compound], KEB = 10^7 M^−1 at the concentration of 50 μM EB; Gibb's free energy change ΔGb°=–RT lnKass; Kq is represented as bimolecular quenching rate constant/Stern–Volmer dynamic quenching rate constant (Kq=KSV/τ0), average life time of the biomolecular quenching in the absence of a quencher (τ0) = 10^−8 S; Gibb's free energy change ΔGb°=–RT lnKass (where R = […], T = 298 K); KLB is represented as Lineweaver–Burk (LWB) binding constant; KSA is represented as Scatchard association binding constant; Kapp is denoted as apparent binding constant; n is the number of binding sites; P is a ratio of fluorescence quantum efficiency of DNA bound and free complex (P=ɸb/ɸf), which is obtained as intercept from plot F/F0 vs. 1/[DNA], Error limit is ± 2.5% (P < 0.025).(12) Fcorr=Fobs×e^Aex×dex+Aem×dem/2=Fobs×e^Aex+Aem/2, where Fcorr and Fobs are represented as the IFE-corrected fluorescence and observed (uncorrected) emission intensities, respectively. dex and dem are denoted as the cuvette path lengths in the excitation and emission directions, respectively. Aex and Aem are represented as the change in absorbance at the excitation and fluorescence wavelengths, respectively.(13) F0 /F=1+KSVQ=1+Kq τ0, where [Q] is represented as the sample concentration, the emission intensities F0 and F of DNA/BSA in the absence and presence of the quencher (sample), respectively.(14) F0 /F−1=F0−F/F=KSVQlogF0−F/F=logKass+n logQ, (15) KEBEB=Kappcompound, (16) 1/F0−F=1/F0 KLBQ+1/F0 , (17) γ/CF =KSCn−γ, where γ = [(F0 − F)/F0], and CF is denoted as the concentration of sample alone.
# The linear regression correlation coefficient (R^2) values for all substances further confirmed that there is no found inner filter effect due to these values are greater than 0.95. Moreover, the following Stern–Volmer equations (13)–(15) were employed to determine the KSV, Kq, and n values (Table 4). The KSV findings were measured from the slope to intercept ratio of the linear regression plot of F0/F vs. [Q] by the SV method I (Figure S22). […]
# [2] = tested on: Bacillus cereus; assay: Agar disc diffusion, strain G; format: cell-based; set-up: (inhibition %): concentration or dose not given beside the values; details: for diameter of the clear zone inhibition: control = 6 mm
# Experimental: (§1) In-vitro antimicrobial properties were evaluated for all samples by the agar disc diffusion method towards different fungal and bacterial strains. Additionally, the reported inhibition zone values were comparatively analyzed with the standard antifungal drugs ketoconazole and amphotericin B as well as the standard antibiotic medications streptomycin and amikacin.
# (§2) The current research has a curious focus on the in vitro antimicrobial properties of biological systems because these studies are crucial for developing effective antibacterial and antifungal medications. […] It can also be spelled out based on the chelation theory proposed by Overtone and Tweedy. Chelation theory points out that the partial exchanging of the positive charge of the metal center with donor moieties, and overlap of the ligand orbitals will reduce the greater degree of the metal ion's polarity, which ultimately rises the delocalization of π and d electrons over the full chelated ring system. By raising the size of the metal ion due to the retarding of polarization, chelation may also enhance the complexes' lipophilic characteristics, which further stimulate the lipid membrane permeability and break down the bacteria' enzymes responsible for cell wall formation, therefore slowing down the regular cell processes. By preventing the production of cell walls/proteins/DNA, including by obstructing folate metabolism and the cytoplasmic membrane, antimicrobial drugs frequently either fully eliminate microbes or only prevent their cell growth. Additionally, the samples' mode of action may be employed in disrupting the cell's respiration process by forming an H-bond during the morpholine-fused iminic group coordinated with the active metal center of its components, inhibiting proliferation of the cell. […] The difference in the antimicrobial efficacy of some of the compounds towards various microorganisms influences on the impermeability of the cells of the germs or the diversity of ribosomes of the microbes. The % of the inhibition of all substances is estimated from (45) (Table 9).
# (§3) (A, B, C, D, and E are represented as gram negative bacteria species Escherichia coli, Salmonella enteric serovar typhi, Salmonella enteric serovar typhi, Pseudomonas aeruginosa, and Shigella flexneri, respectively. F & G are denoted as gram positive bacteria species Staphylococcus aureus and Bacillus cereus. H, I, and J are represented as fungal strains Aspergillus niger, Candida albicans, and Mucor indicus. Standard drugs for bacterial strains: Amikacin & Streptomycin Standard drugs for fungal strains: Ketoconazole and Amphotericin B. [Control (DMSO) = 6 mm].(44) Inhibition %=T–C/T×100, where T and C are represented as the diameter of microbial growth of the sample plates and the control plate (6 mm), respectively. Error limits ±2.5–5.0% (P ≤ 0.05).
# [3] = tested on: Candida albicans; assay: Agar disc diffusion, strain I; format: cell-based; set-up: (inhibition %): concentration or dose not given beside the values; details: for diameter of the clear zone inhibition: control = 6 mm
# Experimental: as §1, §2, §3
Compound,Scatchard analysis KSA [1],Scatchard analysis n [1],"Kass (DNA), SV method II [1]","KSV (DNA), SV method I [1]",Kapp [1],"Kq (DNA), SV method I [1]",LWB method KLB [1],"P (DNA), ratio of fluorescence quantum efficiency [1]","n (DNA), SV method II [1]","∆Gb° (DNA), SV method II [1]",(inhibition %) [2],diameter of the clear zone inhibition [2],(inhibition %) [3],diameter of the clear zone inhibition [3]
"[Cu+2].[O-]c1ccccc1N=Cc1ccc(N2CCOCC2)cc1.[O-]c1ccccc1N=Cc1ccc(N2CCOCC2)cc1.c1ccc(-c2ccccn2)nc1 [(1a), [Cu(L)2(bpy)]]",33151 M⁻¹,1.033,50564 M⁻¹,52474 M⁻¹,9.894e+06 M⁻¹,5.2474e+12 M⁻¹ s⁻¹,18846 M⁻¹,0.2000,1.168,−26.835 kJM^−1,54%,13 mm,50%,12 mm
"[O-]c1ccccc1N=Cc1ccc(N2CCOCC2)cc1.[O-]c1ccccc1N=Cc1ccc(N2CCOCC2)cc1.[Zn+2].c1ccc(-c2ccccn2)nc1 [(2a), [Zn(L)2(bpy)]]",30190 M⁻¹,0.971,17368 M⁻¹,32694 M⁻¹,6.569e+06 M⁻¹,3.2694e+12 M⁻¹ s⁻¹,15630 M⁻¹,0.1832,1.055,−24.187 kJM^−1,57%,14 mm,54%,13 mm
"Oc1ccccc1N=Cc1ccc(N2CCOCC2)cc1 [(HL), 2-(4-morpholinobenzylideneamino)phenol]",23194 M⁻¹,1.096,9606 M⁻¹,11636 M⁻¹,5.829e+06 M⁻¹,1.1636e+12 M⁻¹ s⁻¹,6985 M⁻¹,0.0900,0.973,−22.720 kJM^−1,33%,09 mm,40%,10 mm

# — paper PMC9763021, “Comprehensive Assessment of Biomolecular Interactions of Morpholine-Based Mixed Ligand Cu(II) and Zn(II) Complexes of 2,2′-Bipyridine as Potential Anticancer and SARS-CoV-2 Agents: A Synergistic Experimental and Structure-Based Virtual Screening” (Bioinorganic Chemistry and Applications, 2022)
